Experimental data reported in patent EP0377642B1, “HERBICIDES FOR WEED CONTROL IN RICE” (E.I. DU PONT DE NEMOURS AND COMPANY, priority 1987, dated 1989).

Key:
transplanted rice = assay: Crop tolerance of transplanted rice (Table 7); format: in vivo; settings: rating 0-10
Excerpt: (§1) Methyl 2-[[[[(4-methoxy-6-methyl-1,3,5-triazin-2-yl)amino]carbonyl]amino]sulfonyl]benzoate (Compound 1) and mixtures thereof with other compounds were applied as a spray (using a hand sprayer) to rice (either transplanted or direct seeded) in several rice growing areas in Southeast Asia and in the U.S. Tables 1-28 contain the results of these tests and clearly exemplify the utility of this invention. The details of each application are included in the appropriate table. [drawing 2]

rice = assay: Herbicidal efficacy in relation to application timing in Indonesia (Table 5); format: in vivo
Excerpt: as §1

## COC(=O)c1ccccc1S(=O)(=O)NC(=O)Nc1nc(C)nc(OC)n1 [Compound 1, Methyl 2-[[[[(4-methoxy-6-methyl-1,3,5-triazin-2-yl)amino]carbonyl]amino]sulfonyl]benzoate]
Transplanted rice; 3 GAI/HA, 1 WAA
  CROP TOLERANCE: 0
Transplanted rice; 3 GAI/HA, 2WAA
  CROP TOLERANCE: 0
Transplanted rice; 3 GAI/HA, 4WAA
  CROP TOLERANCE: 0
Transplanted rice; 3 GAI/HA, 6WAA
  CROP TOLERANCE: 0
Transplanted rice; 4 GAI/HA, 1 WAA
  CROP TOLERANCE: 0
Transplanted rice; 4 GAI/HA, 2WAA
  CROP TOLERANCE: 0
Transplanted rice; 4 GAI/HA, 4WAA
  CROP TOLERANCE: 0
Transplanted rice; 4 GAI/HA, 6WAA
  CROP TOLERANCE: 0
Transplanted rice; 6 GAI/HA, 1 WAA
  CROP TOLERANCE: 1
Transplanted rice; 6 GAI/HA, 2WAA
  CROP TOLERANCE: 0
Transplanted rice; 6 GAI/HA, 4WAA
  CROP TOLERANCE: 0
Transplanted rice; 6 GAI/HA, 6WAA
  CROP TOLERANCE: 0
Transplanted rice; 8 GAI/HA, 1 WAA
  CROP TOLERANCE: 1
Transplanted rice; 8 GAI/HA, 2WAA
  CROP TOLERANCE: 1
Transplanted rice; 8 GAI/HA, 4WAA
  CROP TOLERANCE: 0
Transplanted rice; 8 GAI/HA, 6WAA
  CROP TOLERANCE: 0
rice; 3 WAT, 2 GAI/HA, evaluation 1
  % CONTROL RICE: 0%
rice; 3 WAT, 2 GAI/HA, evaluation 2
  % CONTROL RICE: 0%
rice; 3 WAT, 2 GAI/HA, evaluation 3
  % CONTROL RICE: 0%
rice; 3 WAT, 3 GAI/HA, evaluation 1
  % CONTROL RICE: 0%
rice; 3 WAT, 3 GAI/HA, evaluation 2
  % CONTROL RICE: 0%
rice; 3 WAT, 3 GAI/HA, evaluation 3
  % CONTROL RICE: 0%
rice; 3 WAT, 4 GAI/HA, evaluation 1
  % CONTROL RICE: 0%
rice; 3 WAT, 4 GAI/HA, evaluation 2
  % CONTROL RICE: 0%
rice; 3 WAT, 4 GAI/HA, evaluation 3
  % CONTROL RICE: 0%
rice; 3 WAT, 6 GAI/HA, evaluation 1
  % CONTROL RICE: 0%
rice; 3 WAT, 6 GAI/HA, evaluation 2
  % CONTROL RICE: 0%
rice; 3 WAT, 6 GAI/HA, evaluation 3
  % CONTROL RICE: 0%
rice; 3 WAT, 8 GAI/HA, evaluation 1
  % CONTROL RICE: 0%
rice; 3 WAT, 8 GAI/HA, evaluation 2
  % CONTROL RICE: 0%
rice; 3 WAT, 8 GAI/HA, evaluation 3
  % CONTROL RICE: 0%
rice; 4 WAT, 2 GAI/HA, evaluation 1
  % CONTROL RICE: 0%
rice; 4 WAT, 2 GAI/HA, evaluation 2
  % CONTROL RICE: 0%
rice; 4 WAT, 2 GAI/HA, evaluation 3
  % CONTROL RICE: 0%
rice; 4 WAT, 3 GAI/HA, evaluation 1
  % CONTROL RICE: 0%
rice; 4 WAT, 3 GAI/HA, evaluation 2
  % CONTROL RICE: 10%
rice; 4 WAT, 3 GAI/HA, evaluation 3
  % CONTROL RICE: 0%
rice; 4 WAT, 4 GAI/HA, evaluation 1
  % CONTROL RICE: 20%
rice; 4 WAT, 4 GAI/HA, evaluation 2
  % CONTROL RICE: 20%
rice; 4 WAT, 4 GAI/HA, evaluation 3
  % CONTROL RICE: 0%
rice; 4 WAT, 6 GAI/HA, evaluation 1
  % CONTROL RICE: 20%
rice; 4 WAT, 6 GAI/HA, evaluation 2
  % CONTROL RICE: 20%
rice; 4 WAT, 6 GAI/HA, evaluation 3
  % CONTROL RICE: 0%
rice; 4 WAT, 8 GAI/HA, evaluation 1
  % CONTROL RICE: 20%
rice; 4 WAT, 8 GAI/HA, evaluation 2
  % CONTROL RICE: 20%
rice; 4 WAT, 8 GAI/HA, evaluation 3
  % CONTROL RICE: 0%
rice; 5 WAT, 2 GAI/HA, evaluation 1
  % CONTROL RICE: 10%
rice; 5 WAT, 2 GAI/HA, evaluation 2
  % CONTROL RICE: 0%
rice; 5 WAT, 2 GAI/HA, evaluation 3
  % CONTROL RICE: 0%
rice; 5 WAT, 3 GAI/HA, evaluation 1
  % CONTROL RICE: 10%
rice; 5 WAT, 3 GAI/HA, evaluation 2
  % CONTROL RICE: 0%
rice; 5 WAT, 3 GAI/HA, evaluation 3
  % CONTROL RICE: 0%
rice; 5 WAT, 4 GAI/HA, evaluation 1
  % CONTROL RICE: 30%
rice; 5 WAT, 4 GAI/HA, evaluation 2
  % CONTROL RICE: 0%
rice; 5 WAT, 4 GAI/HA, evaluation 3
  % CONTROL RICE: 0%
rice; 5 WAT, 6 GAI/HA, evaluation 1
  % CONTROL RICE: 0%
rice; 5 WAT, 6 GAI/HA, evaluation 2
  % CONTROL RICE: 0%
rice; 5 WAT, 6 GAI/HA, evaluation 3
  % CONTROL RICE: 0%
rice; 5 WAT, 8 GAI/HA, evaluation 1
  % CONTROL RICE: 30%
rice; 5 WAT, 8 GAI/HA, evaluation 2
  % CONTROL RICE: 10%
